Measurements taken from PubChem BioAssay AID2060886 (Molecular Pharmacology Branch, DTP, NCI, 2025).
Blank lines part the entries; values can stand above or below the compound they belong to.

System: 653999-131-R-J2-PDC complex spheroids, growth inhibition
Assay: Anticancer human tumor 653999-131-R-J2-PDC patient-derived lung adenocarcinoma cell line growth inhibition [RAS]
Conditions: for IC50: curve of first compound; for viability, T/C: stronger effect = lower value
Summary of the method: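 Tumour cells grown as complex spheroids with HUVEC endothelial cells and mesenchymal stem cells, treated with RAS pathway inhibitor combinations. Each agent spans half-log steps from near clinical Cmax, or 10 microM where Cmax is unknown.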

[1] = second compound 0.0316 µM, first compound 0.00316 µM
[2] = second compound 0.0316 µM, first compound 0.01 µM
[3] = second compound 0.0316 µM, first compound 0.0316 µM
[4] = second compound 0.0316 µM, first compound 0.1 µM
[5] = second compound 0.0316 µM, first compound 0.316 µM
[6] = second compound 0.0316 µM, first compound 1 µM
[7] = second compound 0.1 µM, first compound 0.00316 µM
[8] = second compound 0.1 µM, first compound 0.01 µM
[9] = second compound 0.1 µM, first compound 0.0316 µM
[10] = second compound 0.1 µM, first compound 0.1 µM
[11] = second compound 0.1 µM, first compound 0.316 µM
[12] = second compound 0.1 µM, first compound 1 µM
[13] = second compound 0.316 µM, first compound 0.00316 µM
[14] = second compound 0.316 µM, first compound 0.01 µM
[15] = second compound 0.316 µM, first compound 0.0316 µM
[16] = second compound 0.316 µM, first compound 0.1 µM
[17] = second compound 0.316 µM, first compound 0.316 µM
[18] = second compound 0.316 µM, first compound 1 µM
[19] = second compound 1 µM, first compound 0.00316 µM
[20] = second compound 1 µM, first compound 0.01 µM
[21] = second compound 1 µM, first compound 0.0316 µM
[22] = second compound 1 µM, first compound 0.1 µM
[23] = second compound 1 µM, first compound 0.316 µM
[24] = second compound 1 µM, first compound 1 µM
[25] = second compound 3.16 µM, first compound 0.00316 µM
[26] = second compound 3.16 µM, first compound 0.01 µM
[27] = second compound 3.16 µM, first compound 0.0316 µM
[28] = second compound 3.16 µM, first compound 0.1 µM
[29] = second compound 3.16 µM, first compound 0.316 µM
[30] = second compound 3.16 µM, first compound 1 µM
[31] = second compound 10 µM, first compound 0.00316 µM
[32] = second compound 10 µM, first compound 0.01 µM
[33] = second compound 10 µM, first compound 0.0316 µM
[34] = second compound 10 µM, first compound 0.1 µM
[35] = second compound 10 µM, first compound 0.316 µM
[36] = second compound 10 µM, first compound 1 µM
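Further: spheroids exposed to the agents for seven days before the readout.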

- IC50 (second compound 0.000949 µM): > 1000 nM
- IC50 (second compound 0.003 µM): > 1000 nM
- IC50 (second compound 0.00949 µM): > 1000 nM
- IC50 (second compound 0.03 µM): > 1000 nM
- IC50 (second compound 0.0949 µM): > 1000 nM
- IC50 (second compound 0.3 µM): > 1000 nM
Structure (SMILES): CCN1CCN(Cc2ccc(Nc3ncc(F)c(-c4cc(F)c5nc(C)n(C(C)C)c5c4)n3)nc2)CC1 + CCn1c(-c2cccnc2C(C)OC)c2c3cc(ccc31)N1CCOC(CC(NC(=O)C(C(C)C)N(C)C(=O)C3(F)CCN(C(=O)C#CC(C)(C)N(C)C)CC3)C(=O)N3CCCC(N3)C(=O)OCC(C)(C)C2)C1
- viability, T/C (second compound 0.000949 µM, first compound 0.00316 µM): 101%
- viability, T/C (second compound 0.000949 µM, first compound 0.01 µM): 87.8%
- viability, T/C (second compound 0.000949 µM, first compound 0.0316 µM): 75.3%
- viability, T/C (second compound 0.000949 µM, first compound 0.1 µM): 67.6%
- viability, T/C (second compound 0.000949 µM, first compound 0.316 µM): 73.2%
- viability, T/C (second compound 0.000949 µM, first compound 1 µM): 78.4%
- viability, T/C (second compound 0.003 µM, first compound 0.00316 µM): 98.5%
- viability, T/C (second compound 0.003 µM, first compound 0.01 µM): 76.9%
- viability, T/C (second compound 0.003 µM, first compound 0.0316 µM): 75.5%
- viability, T/C (second compound 0.003 µM, first compound 0.1 µM): 75%
- viability, T/C (second compound 0.003 µM, first compound 0.316 µM): 71.8%
- viability, T/C (second compound 0.003 µM, first compound 1 µM): 92.9%
- viability, T/C (second compound 0.00949 µM, first compound 0.00316 µM): 105%
- viability, T/C (second compound 0.00949 µM, first compound 0.01 µM): 99.5%
- viability, T/C (second compound 0.00949 µM, first compound 0.0316 µM): 64.8%
- viability, T/C (second compound 0.00949 µM, first compound 0.1 µM): 77.6%
- viability, T/C (second compound 0.00949 µM, first compound 0.316 µM): 80%
- viability, T/C (second compound 0.00949 µM, first compound 1 µM): 82.2%
- viability, T/C (second compound 0.03 µM, first compound 0.00316 µM): 95.1%
- viability, T/C (second compound 0.03 µM, first compound 0.01 µM): 75.7%
- viability, T/C (second compound 0.03 µM, first compound 0.0316 µM): 79.2%
- viability, T/C (second compound 0.03 µM, first compound 0.1 µM): 64.2%
- viability, T/C (second compound 0.03 µM, first compound 0.316 µM): 89.9%
- viability, T/C (second compound 0.03 µM, first compound 1 µM): 79.1%
- viability, T/C (second compound 0.0949 µM, first compound 0.00316 µM): 90.9%
- viability, T/C (second compound 0.0949 µM, first compound 0.01 µM): 85.6%
- viability, T/C (second compound 0.0949 µM, first compound 0.0316 µM): 79.5%
- viability, T/C (second compound 0.0949 µM, first compound 0.1 µM): 69.3%
- viability, T/C (second compound 0.0949 µM, first compound 0.316 µM): 83.7%
- viability, T/C (second compound 0.0949 µM, first compound 1 µM): 81.3%
- viability, T/C (second compound 0.3 µM, first compound 0.00316 µM): 95.4%
- viability, T/C (second compound 0.3 µM, first compound 0.01 µM): 81.6%
- viability, T/C (second compound 0.3 µM, first compound 0.0316 µM): 73.7%
- viability, T/C (second compound 0.3 µM, first compound 0.1 µM): 60.8%
- viability, T/C (second compound 0.3 µM, first compound 0.316 µM): 84.6%
- viability, T/C (second compound 0.3 µM, first compound 1 µM): 77.6%

- IC50 (second compound 0.0316 µM): > 1000 nM
- IC50 (second compound 0.1 µM): > 1000 nM
- IC50 (second compound 0.316 µM): > 1000 nM
- IC50 (second compound 1 µM): > 1000 nM
- IC50 (second compound 3.16 µM): < 3.16 nM
- IC50 (second compound 10 µM): < 3.16 nM
Structure (SMILES): C=CC(=O)N1CCN(c2nc(OCC3CCCN3C)nc3c(F)c(-c4nc(N)cc(C)c4C(F)(F)F)c(Cl)cc23)C(C)C1 (stereo unspecified) + C#Cc1c(F)ccc2cc(O)cc(-c3ncc4c(N5CC6CCC(C5)N6)nc(OCC56CCCN5CC(F)C6)nc4c3F)c12
- viability, T/C [1]: 117%
- viability, T/C [2]: 91.3%
- viability, T/C [3]: 95.9%
- viability, T/C [4]: 82.3%
- viability, T/C [5]: 99.1%
- viability, T/C [6]: 85.2%
- viability, T/C [7]: 92.7%
- viability, T/C [8]: 84.1%
- viability, T/C [9]: 73.9%
- viability, T/C [10]: 78.5%
- viability, T/C [11]: 83.3%
- viability, T/C [12]: 73.1%
- viability, T/C [13]: 71.7%
- viability, T/C [14]: 62.5%
- viability, T/C [15]: 65.6%
- viability, T/C [16]: 67.8%
- viability, T/C [17]: 70.2%
- viability, T/C [18]: 52.8%
- viability, T/C [19]: 41.5%
- viability, T/C [20]: 63%
- viability, T/C [21]: 54%
- viability, T/C [22]: 53.8%
- viability, T/C [23]: 55.4%
- viability, T/C [24]: 46.5%
- viability, T/C [25]: 38%
- viability, T/C [26]: 55.2%
- viability, T/C [27]: 39%
- viability, T/C [28]: 35%
- viability, T/C [29]: 43.8%
- viability, T/C [30]: 31.4%
- viability, T/C [31]: 24.5%
- viability, T/C [32]: 26.7%
- viability, T/C [33]: 20.8%
- viability, T/C [34]: 31.9%
- viability, T/C [35]: 27%
- viability, T/C [36]: 29.6%

- IC50 (second compound 0.0316 µM): > 1000 nM
- IC50 (second compound 0.1 µM): 613 nM
- IC50 (second compound 0.316 µM): 61.7 nM
- IC50 (second compound 1 µM): 17.7 nM
- IC50 (second compound 3.16 µM): < 3.16 nM
- IC50 (second compound 10 µM): < 3.16 nM
Structure (SMILES): C=CC(=O)Nc1cc(Nc2nccc(-c3cn(C)c4ccccc34)n2)c(OC)cc1N(C)CCN(C)C + C#Cc1c(F)ccc2cc(O)cc(-c3ncc4c(N5CC6CCC(C5)N6)nc(OCC56CCCN5CC(F)C6)nc4c3F)c12
- viability, T/C [1]: 96.1%
- viability, T/C [2]: 80.7%
- viability, T/C [3]: 82.9%
- viability, T/C [4]: 68.3%
- viability, T/C [5]: 55.5%
- viability, T/C [6]: 63.3%
- viability, T/C [7]: 89.4%
- viability, T/C [8]: 90.8%
- viability, T/C [9]: 57.7%
- viability, T/C [10]: 69.9%
- viability, T/C [11]: 57.2%
- viability, T/C [12]: 44.3%
- viability, T/C [13]: 77%
- viability, T/C [14]: 95%
- viability, T/C [15]: 65.1%
- viability, T/C [16]: 37.1%
- viability, T/C [17]: 40.9%
- viability, T/C [18]: 39.2%
- viability, T/C [19]: 60.9%
- viability, T/C [20]: 53.7%
- viability, T/C [21]: 43.2%
- viability, T/C [22]: 42.8%
- viability, T/C [23]: 36.1%
- viability, T/C [24]: 28.1%
- viability, T/C [25]: 45.6%
- viability, T/C [26]: 35.2%
- viability, T/C [27]: 38.3%
- viability, T/C [28]: 25.9%
- viability, T/C [29]: 22.8%
- viability, T/C [30]: 19.6%
- viability, T/C [31]: 35.2%
- viability, T/C [32]: 27.7%
- viability, T/C [33]: 26.4%
- viability, T/C [34]: 15.5%
- viability, T/C [35]: 15.2%
- viability, T/C [36]: 10.5%
